Laboratory results from paper PMC10077475, “DG9-conjugated morpholino rescues phenotype in SMA mice by reaching the CNS via a subcutaneous administration” (JCI Insight, 2023).

Key:
severe SMA mouse model [1] = assay: Whole-body plethysmography, breathing function at PD7; assay type: in vivo; conditions: for respiratory parameters under hypoxia (11% O2): 40 mg/kg s.c. at PD0, PD7
Text: The majority of patients with SMA suffer from compromised breathing functions and rely on an external source of breathing support. To evaluate the effects of DG9-PMO treatment on breathing function, we performed whole-body plethysmography recordings at PD7 under normoxic (21% O2) and hypoxic (11% O2) conditions (Figure 3A). […] The NT mice on the other hand had slow, irregular breathing denoted by a higher coefficient of variation of frequency (CV, a measure of relative variability) and marked apneas (absence of airflow/pressure changes for a period equivalent to or greater than 2 complete respiratory cycles) (Figure 3, B and F).
Measurements were performed in whole-body, cylindrical, transparent, plexiglass plethysmographs (Validyne Engineering) that had 1 inflow and 2 outflow ports for the continuous delivery of fresh room air and removal of expired carbon dioxide ([75], [76]). […] The gas was mixed with gas mixer (GSM-3, CWE), delivered from compressed pure oxygen and pure nitrogen cannisters, being monitored using 0–200 mL/min gas regulators (Porter Instrument Company). […] For PD30, the plethysmograph was recorded at RT of around 22°C. Pressure changes were detected with a pressure transducer (DP 103; Validyne) and signal conditioner (CD-15; Validyne), recorded with data acquisition software (Axoscope) via analog-digital board (Digidata 1322A). […] VT and fR were measured with blood pressure settings using Labchart 8 (ADInstruments). Threshold levels for bursts were set, and bursts were then automatically detected so that frequency (calculated from cycle duration) and VT (calculated from maximal pressure minus minimal pressure) values were interpreted. […]
Respiratory parameters were calculated over an average of 1 minute of continuous plethysmography recordings. […]

severe SMA mouse model [2] = assay: Righting reflex test; assay type: in vivo; conditions: 40 mg/kg s.c. at PD0, compared with the other groups
Text: To evaluate the effects of systemic DG9-PMO treatment on muscle strength and the function of motor neurons, we used several functional tests and compared motor function in the treated and NT mice at various time points. We performed the hind limb suspension (HLS) assay and the righting reflex test during the early weeks of life. […] It should be noted that the results beyond PD12 are biased, as only the healthiest unconjugated PMO–, MOE-, and R6G-PMO–treated mice survived to these time points.
This spontaneous ability of the mice to right themselves up was tested from PD2 until the weaning stage PD20. The neonates were placed on their backs, and the time taken to reposition and place all 4 paws on the ground was noted. The recording time was a maximum of 60 seconds. Each neonate underwent 3 trials, with a resting period of at least 10 minutes between trials. The data are expressed as the mean time to complete the righting reflex test ± SEM.

CD68+ macrophages = assay: CD68+ macrophage detection in quadriceps muscle; assay type: in vivo, mouse; conditions: 40 mg/kg s.c. at PD0, quadriceps muscle sections at PD7
Text: Peptides can typically pose as antigens, leading to immune reactions. Therefore, we examined the susceptibility of DG9-PMO to cause immune activation at an early neonatal stage, by looking at CD68^+ cells, indicative of circulating and tissue macrophages, in the quadriceps muscle sections at PD7 (Supplemental Figure 9, A and B). […] The apparent reduction in circulating macrophages following DG9-PMO treatment is likely due to amelioration of the atrophic musculature, which would compensate for any elevation seen from the treatment itself.
Cryosections (7 μm) of the quadriceps muscle were fixed with 4% PFA. The sections were incubated with rat anti-mouse CD68 antibody (MCA1957T, Bio-Rad). The number of CD68^+ cells was counted and averaged from at least 5 sections per sample at random intervals at 20× original magnification.

Row | Compound | respiratory parameters under hypoxia (11% O2) (severe SMA mouse model [1]) | time to right (righting reflex) (severe SMA mouse model [2]) | respiratory phenotype under normoxic conditions (21% O2) (severe SMA mouse model [1]; 40 mg/kg s.c. at PD0, PD7, majority of the mice) | number of CD68+ macrophages compared with the Hets (CD68+ macrophages)
1 | unconjugated PMO: PMO targeting ISS-N1 intron 7 (5′ TCACTTTCATAATGCTGG 3′), purchased from Gene Tools LLC (all phosphorodiamidate morpholino (PMO)) [reference compound] | slow, weak, and irregular breathing when compared with the Hets | – | – | –
2 | CC(=O)N[C@@H](Cc1ccc(O)cc1)C(=O)N[C@@H](C)C(=O)N[C@H](CCCNC(=N)N)C(=O)N[C@H](C(=O)N[C@@H](CCCNC(=N)N)C(=O)N[C@@H](CCCNC(=N)N)C(=O)N[C@H](CCCNC(=N)N)C(=O)NCC(=O)N1CCC[C@H]1C(=O)N[C@@H](CCCNC(=N)N)C(=O)NCC(=O)N[C@@H](Cc1ccc(O)cc1)C(=O)N[C@@H](C)C(=O)N[C@H](CCCNC(=N)N)C(=O)N[C@H](C(=O)N[C@@H](CCCNC(=N)N)C(=O)N[C@@H](CCCNC(=N)N)C(=O)N[C@H](CCCNC(=N)N)C(=O)NCC(=O)N1CCC[C@H]1C(=O)N[C@@H](CCCNC(=N)N)C(=O)N[C@H](CCCNC(=N)N)C(=O)N1C[C@@H](COP(=O)(N(C)C)N2C[C@@H](COP(=O)(N(C)C)N3C[C@@H](COP(=O)(N(C)C)N4C[C@@H](COP(=O)(N(C)C)N5C[C@@H](COP(=O)(N(C)C)N6C[C@@H](COP(=O)(N(C)C)N7C[C@@H](COP(=O)(N(C)C)N8C[C@@H](COP(=O)(N(C)C)N9C[C@@H](COP(=O)(N(C)C)N%10C[C@@H](COP(=O)(N(C)C)N%11C[C@@H](COP(=O)(N(C)C)N%12C[C@@H](COP(=O)(N(C)C)N%13C[C@@H](COP(=O)(N(C)C)N%14C[C@@H](COP(=O)(N(C)C)N%15C[C@@H](COP(=O)(N(C)C)N%16C[C@@H](COP(=O)(N(C)C)N%17C[C@@H](COP(=O)(N(C)C)N%18C[C@@H](COP(=O)(N(C)C)N%19CCC(C(N)=O)CC%19)O[C@@H](n%19cc(C)c(=O)[nH]c%19=O)C%18)O[C@@H](n%18ccc(N)nc%18=O)C%17)O[C@@H](n%17cnc%18c(N)ncnc%18%17)C%16)O[C@@H](n%16ccc(N)nc%16=O)C%15)O[C@@H](n%15cc(C)c(=O)[nH]c%15=O)C%14)O[C@@H](n%14cc(C)c(=O)[nH]c%14=O)C%13)O[C@@H](n%13cc(C)c(=O)[nH]c%13=O)C%12)O[C@@H](n%12ccc(N)nc%12=O)C%11)O[C@@H](n%11cnc%12c(N)ncnc%12%11)C%10)O[C@@H](n%10cc(C)c(=O)[nH]c%10=O)C9)O[C@@H](n9cnc%10c(N)ncnc%109)C8)O[C@@H](n8cnc9c(N)ncnc98)C7)O[C@@H](n7cc(C)c(=O)[nH]c7=O)C6)O[C@@H](n6cnc7c(=O)[nH]c(N)nc76)C5)O[C@@H](n5ccc(N)nc5=O)C4)O[C@@H](n4cc(C)c(=O)[nH]c4=O)C3)O[C@@H](n3cnc4c(=O)[nH]c(N)nc43)C2)O[C@@H](n2cnc3c(=O)[nH]c(N)nc32)C1)C(C)C)C(C)C (some centres unmarked) [DG9-PMO] | increase in the respiratory parameters fR, VE, and VT relative to normoxia | significantly shorter time to right themselves on their paws between PD6 and PD10 | did not exhibit any respiratory phenotype | no significant difference
